# Measurements from article PMC8210616, “Adjuvant-free peptide vaccine targeting Clec9a on dendritic cells can induce robust antitumor immune response through Syk/IL-21 axis” (Theranostics, 2021).
# “Also recorded” adds a separate entry of the source. Ends that are not written are not given here. Peptide text beside a SMILES is read from it. * marks the point of attachment. biotin = biotin on the C-terminal Lys, O=C1N[C@H]2[C@H](CS[C@H]2CCCCC(=O)*)N1; Biotin = O=C1N[C@H]2[C@H](CS[C@H]2CCCCC(=O)*)N1
# T1: mouse Clec9a (mClec9a) protein (Mus musculus, UniProt Q8BRU4)
# T1 sequence (Q8BRU4 106-238 limits assumed): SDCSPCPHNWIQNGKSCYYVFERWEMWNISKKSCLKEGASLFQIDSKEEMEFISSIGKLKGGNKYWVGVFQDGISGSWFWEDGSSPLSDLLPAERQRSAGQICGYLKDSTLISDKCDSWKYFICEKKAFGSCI
# T2: mClec9a (Mus musculus, UniProt Q8BRU4)
# T2 construct: expressed in transfected cells; host or cells: HEK-293T
# T2 sequence (Q8BRU4 1-264 isoform Q8BRU4-4): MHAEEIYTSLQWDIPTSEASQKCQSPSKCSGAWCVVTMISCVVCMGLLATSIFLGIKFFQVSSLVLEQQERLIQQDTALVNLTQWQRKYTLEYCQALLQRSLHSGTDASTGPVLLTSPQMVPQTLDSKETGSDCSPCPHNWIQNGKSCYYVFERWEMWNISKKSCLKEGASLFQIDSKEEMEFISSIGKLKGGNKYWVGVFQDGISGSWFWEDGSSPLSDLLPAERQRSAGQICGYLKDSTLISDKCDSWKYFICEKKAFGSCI
# B1: CBP-12^biotin (12-mer Clec9a binding peptide, …-GGG-K^biotin) (peptide)
# peptide: WPRFHSSVRHTHGGGK(biotin)
# B2: WH^biotin (WH peptide, …-GGG-K^biotin) (peptide)
# peptide: WPRFHSSVFHTHGGGK(biotin)
# Legend:
# [1] = test system: FL-DCs; experiment: Uptake of peptide^biotin-SA-PE by FL-DCs, confocal microscopy; format: cell-based, mouse; conditions: for effect of endocytosis inhibitor on uptake of CBP-12 by FL-DCs: pre-incubation 1 h with inhibitor, then 50 μM CBP-12^biotin-SA-PE 2 h at 37 °C
# Procedure: Biotinylated peptide was mixed with SA-PE in a molar ratio of 1: 3 to obtain SA-PE labeled peptide (peptide^biotin-SA-PE). FL-DCs from wild type (WT) or Clec9a^-/- mice was harvested and washed twice with PBS before use. […] After washing, cells were incubated with Hoechst 33342 (Beyotime Biotechnology, Beijing, China) for 1 h to stain the nucleus. Cells were analyzed with a confocal laser scanning microscopy (Leica TCS SP8, Wetzlar, Germany).
# [2] = test system: IL-21 in cDC1s (CD11c^+XCR1^+); experiment: Intracellular cytokine staining for IL-21 in FL-DCs; format: cell-based, mouse
# Procedure: FL-DCs were incubated with 100 μg/mL OVA257-264, GA-OVA, CBP-12-OVA or PBS and protein transport inhibitor cocktail at 37 °C for 6 h. For Syk phosphorylation inhibition assay, FL-DCs were incubated with 2.5 μM R406 (MCE, New Jersey, USA) for 1 h and then cultured with 100 μg/mL CBP-12-OVA and protein transport inhibitor cocktail at 37 °C for 6 h. IL-21 positive frequency was detected by ICS. R406 is an ATP-competitive Syk kinase inhibitor [26]. Cells stained with anti-mouse-CD11c-APC (N418), anti-mouse/rat XCR1-Brilliant Violet 650™ (ZET) and anti-mouse-IL-21-PE (FFA21) or Rat IgG2a-PE kappa Isotype Control (eBR2a) for IL-21 production were analyzed by a flow cytometry.
# [3] = target: human Clec9a (Homo sapiens, UniProt Q6UXN8); experiment: Binding to human Clec9a (data not shown)
# human Clec9a, sequence (Q6UXN8 whole entry): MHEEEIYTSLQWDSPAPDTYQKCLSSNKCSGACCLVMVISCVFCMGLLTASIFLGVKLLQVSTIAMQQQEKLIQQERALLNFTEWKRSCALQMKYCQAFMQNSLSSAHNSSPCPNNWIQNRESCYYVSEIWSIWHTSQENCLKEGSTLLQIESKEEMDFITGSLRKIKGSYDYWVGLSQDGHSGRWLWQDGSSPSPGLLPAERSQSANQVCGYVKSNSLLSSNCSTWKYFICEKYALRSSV
# [4] = test system: spleen cDC1s (CD45^+CD11c^+XCR1^+); experiment: Uptake of biotinylated peptide by spleen cDC1s in vitro; format: cell-based; conditions: mouse splenocytes, 6.25 µM biotinylated peptide 30 min on ice, then 2 h at 37 °C, SA-PE flow cytometry
# Procedure: Mouse splenocytes (5 × 10^5) were incubated with biotinylated GA peptide and CBP-12 for 30 min on ice, and then cells were washed three times and cultured for 2 h at 37 °C. Spleen cells were stained with anti-mouse CD45-FITC (30-F11), anti-mouse CD11c-PerCP-efluor 450 (N418), anti-mouse XCR1-BV650 (ZET) and anti-mouse CD11b-APC (M1/70). Then cells were fixed, permeabilized and further stained with SA-PE for peptide uptake analysis.
# [5] = test system: spleen cDC1s; experiment: Phagocytosis / targeting of cDC1s in vivo; parameters: species or system mouse; conditions: 100 μg biotinylated peptide s.c., sacrificed after 15 min, n = 3 per group
# From the text: Based on our previous study, Asp248 and Trp250 were two key residues for Clec9a to bind with WH peptide. In order to improve the binding of WH peptide to Clec9a, a silico residue scanning approach was applied to design high affinity WH mutants. The mutants were predicted by using the module of Residue Scanning mutates function, MOE (Molecular Operating Environments) software (2018 version, Chemical Computing Group Inc, Montreal, Quebec, Canada). Two hundred and twenty peptides were obtained, among which 15 peptides were selected and synthesized for experimental identification.
# For phagocytosis in vivo, 6-week-old C57BL/6 mice were s.c. vaccinated with 100 μg biotinylated peptide. After 15 min of immunization, mice were sacrificed. Splenocytes were stained with anti-mouse CD45-FITC (30-F11), anti-mouse CD11c-PerCP-efluor […]
# were fixed, permeabilized and further stained with SA-PE for CBP-12 targeting […]
# For phagocytosis in vitro, FL-DCs were incubated with biotinylated GA peptide and CBP-12 for 30 min on ice, then cells were washed three times and culture for 2 h at 37 °C. FL-DCs were stained with anti-mouse CD45-FITC (30-F11), anti-mouse CD11c-PerCP-efluor 450 (N418), anti-mouse XCR1-BV650 (ZET) and CD11b-APC (M1/70) to mark cDC1s and cDC2s. Then FL-DCs were fixed, permeabilized and […]
# [6] = target: T1, mouse Clec9a (mClec9a) protein; experiment: Binding affinity measurement by MST; conditions: ratio of MST KD values
# Procedure: The affinity of the peptide to mouse Clec9a (mClec9a) protein was detected by microscale thermophoresis (MST) (NanoTemper Technologies GmhH, Germany). Briefly, mClec9a protein (Sino Biological, Beijing, China) was labeled with Red-NHS647 dye (NanoTemper Technologies GmhH, Germany), and the successfully labeled protein was used for affinity measurements. Peptides were diluted into serial concentrations with MST buffer. Equal volume of dye-labeled mClec9a protein was incubated with peptides at room temperature, the mixture was loaded onto capillaries (NanoTemper Technologies GmhH, Germany) and immediately analyzed by an MST instrument. The data were estimated by MO. Affinity Analysis v2.2.4.
# [7] = test system: HEK-293T^mock cells; experiment: Peptide binding assay by flow cytometry, mock-transfected HEK-293T cells; conditions: biotinylated peptides 100 µM, 30 min on ice, SA-PE
# Procedure: (§1) HEK-293T cells were transiently transfected with pIRES2-EGFP-mClec9a plasmid, or the mock pIRES2-EGFP plasmid for binding assay. Cells (3 × 10^5) were incubated with rat serum to block Fc receptors and different biotinylated peptides for 30 min on ice. After washing three times, cells were stained with streptavidin (SA)-PE for 30 min on ice, and the samples were analyzed for binding affinity by a flow cytometry after washing once.
# [8] = target: T2, mClec9a; experiment: Peptide binding assay by flow cytometry, mClec9a-transfected HEK-293T cells; conditions: biotinylated peptides 100 µM, 30 min on ice, SA-PE
# Procedure: as §1
# [9] = In vitro enzyme degradation of peptide in mouse serum; format: in vitro ADME; conditions: 10% (V/V) mouse serum saline solution, peptide 1 mM, 37 °C, sampled 0, 0.25, 0.5, 1 and 2 h, residual peptide by RP-HPLC
# Procedure: further stained with SA-PE. CBP-12 uptake by cDC1s and cDC2s were tested with […]
# In vitro enzyme degradation of peptide
# Peripheral blood of mice was stand at room temperature for 1 h, centrifuged for 10 min and then the supernatant was acquired. The peptide (1 mM) was added into 10% (V/V) serum saline solution and incubated for 2 h at 37 ℃. The samples taken at different time points were added 90% (V/V) acetonitrile-glacial acetic acid mixture and centrifuged for 15 min, then the supernatants were collected. The content of the residual peptide in samples was analyzed at 0 h, 0.25 h, 0.5 h, 1 h and 2 h by […]
# CBP-12-OVA targeting to Clec9a together with adjuvant treated tumor model C57BL/6 or Clec9a−/− mice were s.c. injected with 2 × 10^5 B16-OVA cells. Three days after the tumor implantation, the mice were treated weekly for total of three times, with either 100 μg peptide or normal saline and 30 μg CpG ODN 1826 as adjuvant.
# Then the mice were sacrificed after five days of the last injection.
# Animal immunization and ex vitro CTL priming without adjuvant
# For animal immunization and ex vivo CTL priming, female C57BL/6 mice of 6 -8 weeks were immunized with 20 μg OVA257–264, GA-OVA, CBP-12-OVA, or normal saline s.c. injected once a week for total of three times. Five days after the last
# [10] = target: mouse Clec9a (mClec9a) protein (mouse) (UniProt Q8BRU4); experiment: MST; mClec9a protein labeled with Red-NHS647 dye; peptides in serial dilution in MST buffer, room temperature; MO. Affinity Analysis v2.2.4
# [11] = 50 µM peptide^biotin-SA-PE, 2 h, 37 °C, confocal
molecule,measurement,setting,value
"N=C(N)NC(=O)c1nc(Cl)c(N)nc1N [amiloride, reference compound]",effect of endocytosis inhibitor on uptake of CBP-12 by FL-DCs,[1],inhibited
"CN(C)CCCN1c2ccccc2Sc2ccc(Cl)cc21 [chlorpromazine, reference compound]",effect of endocytosis inhibitor on uptake of CBP-12 by FL-DCs,[1],inhibited
"COc1cc(Nc2ncc(F)c(Nc3ccc4c(n3)NC(=O)C(C)(C)O4)n2)cc(OC)c1OC [R406, reference compound]",effect on CBP-12-OVA induced IL-21 secretion from cDC1s,"[2]; 2.5 µM R406 for 1 h, then 100 µg/mL CBP-12-OVA 6 h",suppress the secretion of IL-21
CC(C)[C@H](NC(=O)[C@H](CO)NC(=O)[C@H](CO)NC(=O)[C@H](Cc1c[nH]cn1)NC(=O)[C@H](Cc1ccccc1)NC(=O)[C@H](CCCNC(=N)N)NC(=O)[C@@H]1CCCN1C(=O)[C@@H](N)Cc1c[nH]c2ccccc12)C(=O)N[C@@H](CCCNC(=N)N)C(=O)N[C@@H](Cc1c[nH]cn1)C(=O)N[C@H](C(=O)N[C@@H](Cc1c[nH]cn1)C(=O)NCC(=O)NCC(=O)NCC(=O)N[C@@H](CCCCNC(=O)CCCC[C@@H]1SC[C@@H]2NC(=O)N[C@@H]21)C(=O)O)[C@@H](C)O [CBP-12] (H-WPRFHSSVRHTHGGGK(Biotin)-OH; N-terminus and C-terminus assumed),binding to human Clec9a,[3],could bind
same,uptake by spleen cDC1s in vitro,[4],strong uptake
same,fluorescence signal in FL-DCs derived from Clec9a^-/- mice,[1]; [11],much lower
same,fluorescence signal in FL-DCs of WT mice,[1]; [11],strong fluorescence signal
same,targeting of cDC1s versus cDC2s in vivo,[5],could target to cDC1s but not cDC2s
same,affinity for mClec9a relative to WH peptide,[6],37.2 fold
same,binding to mock plasmid transfected HEK-293T cells,[7],did not bind
same,binding to mClec9a-overexpressing HEK-293T cells,[8],higher binding affinity than the other peptides
same,stability in mouse serum,[9],resists protease hydrolysis; also recorded: stable in mouse serum for 1 h
same,"secretion of IL-21 from cDC1s, ICS","[2]; FL-DCs, 100 µg/mL peptide, 6 h, 37 °C",stimulated the secretion of IL-21 from cDC1s
B1,Kd,[10],0.61 µM
B2,Kd,[10],22.7 µM
